Like-named read-outs stand apart in the source and are kept apart here.
Key:
[1] = test system: BCG; format: cell-based, M. tuberculosis; settings: for number of plaques observed: 72 hours incubation with drug, M. tuberculosis
[2] = test system: Mycobacterium smegmatis; format: cell-based; settings: for number of plaques observed: 72 hours incubation with drug, M. smegmatis
[3] = Rifampicin concentration 10 μg/ml
[4] = Rifampicin concentration 50 μg/ml
[5] = Rifampicin concentration 100 μg/ml
[6] = Isoniazid concentration 0.1 μg/ml
[7] = Isoniazid concentration 1.0 μg/ml
[8] = Isoniazid concentration 10 μg/ml

| SMILES | number of plaques observed [1, 3] | number of plaques observed [1, 4] | number of plaques observed [1, 5] | number of plaques observed [2, 3] | number of plaques observed [2, 4] | number of plaques observed [2, 5] | number of plaques observed [1, 6] | number of plaques observed [1, 7] | number of plaques observed [1, 8] | change in numbers of plaques ([1]; higher concentrations of isoniazid) | effect on cells judged from number of plaques versus no drug controls ([1]; lowest concentration of isoniazid) | number of plaques observed [2, 6] | number of plaques observed [2, 7] | number of plaques observed [2, 8] | effect on cells judged from numbers of plaques ([2]; isoniazid, all concentrations, only a slight reduction at the highest concentration) |
| --- | --- | --- | --- | --- | --- | --- | --- | --- | --- | --- | --- | --- | --- | --- | --- |
| CO[C@H]1/C=C/O[C@@]2(C)Oc3c(C)c(O)c4c(O)c(c(/C=N/N5CCN(C)CC5)c(O)c4c3C2=O)NC(=O)/C(C)=C\C=C\[C@H](C)[C@H](O)[C@@H](C)[C@@H](O)[C@@H](C)[C@H](OC(C)=O)[C@@H]1C [Rifampicin, rifampicin] | 4 | 4 | 10 | ++ | 50 | 8 |  |  |  |  |  |  |  |  |  |
| NNC(=O)c1ccncc1 [Isoniazid, isoniazid] |  |  |  |  |  |  | 122 | 40 | 2 | marked reduction in the numbers of plaques | unaffected | ++ | ++ | + | mostly unaffected |

Reference: patent US6461833B1, “Method to detect bacteria” (priority 1995, dated 2002)
